According to patent US20200404919A1, “USE OF HETEROARYL-TRIAZOLE AND HETEROARYL-TETRAZOLE COMPOUNDS AS PESTICIDES IN PLANT PROTECTION” (Bayer Aktiengesellschaft, priority 2018, published 2020):

Tests used:
Assay type in all cases: in vivo
Culex quinquefasciatus = experiment: Culex test (CULXFAS surface treatment & contact assay); conditions: 30 minutes exposure, 24 hours after contact, read-out: efficacy (mortality in percent); for mortality at 4 mg/m2: surface concentration 4 mg/m^2, glazed tile; for mortality at 20 mg/m2: surface concentration 20 mg/m^2, glazed tile
Method: Culex Test (CULXFAS Surface Treatment & Contact Assay)
Solvent: Acetone+2000 ppm rapeseed oil methyl ester (RME)
(§1) In order to produce a sufficient, active ingredient containing solution it is necessary to solve the test-compound in an acetone/RME solvent mixture. This solution is pipetted onto a glazed tile and after evaporation of the acetone, adult mosquitoes of the species Culex quinquefasciatus (Brown house mosquito) are placed onto the dried surface. The exposure time is 30 minutes.
(§2) Mortality in percent (%) is determined 24 hours after contact to the treated surface. 100% mortality means that all test-insects are dead, whereas 0% means that not a single insect died.

[1] = tested on: Aedes aegypti strain MONHEIM; experiment: Aedes test (AEDSAE surface treatment & contact assay); conditions: 30 minutes exposure, 24 hours after contact, read-out: efficacy (mortality in percent); for mortality at 4 mg/m2: surface concentration 4 mg/m^2, glazed tile; for mortality at 20 mg/m2: surface concentration 20 mg/m^2, glazed tile
Method: Aedes Test (AEDSAE Surface Treatment & Contact Assay)
Solvent: Aceton+2000 ppm rapeseed oil methyl ester (RME)
as §1, with “Aedes aegypti strain MONHEIM” for “Culex quinquefasciatus (Brown house mosquito)”
as §2

Phaedon cochleariae = Phaedon cochleariae - spray test; conditions: in Brassica rapa, foliar, 168 h, read-out: mortality in %
Method: Phaedon cochleariae—Spray Test
(§3) To produce a suitable preparation of active compound, 1 part by weight of active compound is mixed with the stated amount of solvents and is diluted with water, containing an emulsifier concentration of 1000 ppm, to the desired concentration. Further test concentrations are prepared by dilution with emulsifier containing water.
Chinese cabbage (Brassica pekinensis) leaf disks are sprayed with a preparation of the active ingredient of the desired concentration. Once dry, the leaf disks are infested with mustard beetle larvae (Phaedon cochleariae).
After 7 days mortality in % is determined. 100% means all beetle larvae have been killed and 0% means none of the beetle larvae have been killed.

Myzus persicae = Myzus persicae - oral test; conditions: 120 h, read-out: mortality in %
Method: To produce a suitable preparation of active compound, 1 part by weight of active compound is mixed with the stated amount of solvent, and the concentrate is diluted with water to the desired concentration. 50 μl compound solution is filled in microtiter plates and 150 μl IPL41 insect medium (33%+15% sugar) is added to obtain a total volume of 200 μl per well. Afterwards the plates are sealed with parafilm through which a mixed population of the green peach aphid (Myzus persicae) can suck on the compound preparation.
(§4) After 5 days mortality in % is determined. 100% means all aphids have been killed and 0% means none of the aphids have been killed.

[2] = tested on: Blattella germanica strain PAULINIA; experiment: Blattella germanica test (BLTTGE surface treatment & contact assay); conditions: 30 minutes exposure, 24 hours after contact, read-out: efficacy (mortality in percent); for mortality at 20 mg/m2: surface concentration 20 mg/m^2, glazed tile; for mortality at 4 mg/m2: surface concentration 4 mg/m^2, glazed tile
Method: Blattella germanica Test (BLTTGE Surface Treatment & Contact Assay)
(§5) Solvent: Aceton+2000 ppm Rapeseed oil methyl ester (RME)
as §1, with “animals” for “mosquitoes”, “Blattella germanica strain PAULINIA” for “Culex quinquefasciatus (Brown house mosquito)”
as §2

Nezara viridula = Nezara viridula - spray test 1; conditions: in Hordeum vulgare, 96 h, read-out: mortality in %
Method: Nezara viridula—Spray Test 1
as §3, with “solvent,” for “solvents”, “and the concentrate” for “and”
Barley plants (Hordeum vulgare) infested with larvae of the southern green stink bug (Nezara viridula) are sprayed with a test solution containing the desired concentration of the active ingredient.
After 4 days mortality in % is determined. 100% means all the stink bugs have been killed; 0% means none of the stink bugs have been killed.

Diabrotica balteata = Diabrotica balteata - spray test; conditions: 168 h, 160 μg/well, germinated wheat seeds, larvae, after 7 days, read-out: efficacy in %
Method: Diabrotica balteata—Spray Test
as §3, with “solvent,” for “solvents”, “and the concentrate” for “and”
Soaked wheat seeds (Triticum aestivum) are placed in a multiple well plate filled with agar and some water and are incubated for 1 day to germinate (5 seeds per well). The germinated wheat seeds are sprayed with a test solution containing the desired concentration of the active ingredient. Afterwards each unit is infected with 10-20 larvae of the banded cucumber beetle (Diabrotica balteata).
After 7 days efficacy in % is determined. 100% means all the seedlings have grown up like in the untreated, uninfected control; 0% means none of the seedlings have grown.

Aphis gossypii = Aphis gossypii - oral test; conditions: 120 h, read-out: mortality in %
Method: Solvent: 100 parts by weight acetone
(§6) To produce a suitable preparation of active compound, 1 part by weight of active compound is mixed with the stated amount of solvent, and the concentrate is diluted with water to the desired concentration.
50 μl compound solution is filled in microtiter plates and 150 μl IPL41 insect medium (33%+15% sugar) is added to obtain a total volume of 200 μl per well. Afterwards the plates are sealed with parafilm through which a mixed population of the cotton aphid (Aphis gossypii) can suck on the compound preparation.
as §4

[3] = tested on: Musca domestica strain WHO-N; experiment: Musca domestica test (MUSCDO surface treatment & contact assay); conditions: 30 minutes exposure, 24 hours after contact, read-out: efficacy (mortality in percent); for mortality at 4 mg/m2: surface concentration 4 mg/m^2, glazed tile; for mortality at 20 mg/m2: surface concentration 20 mg/m^2, glazed tile
Method: Musca domestica Test (MUSCDO Surface Treatment & Contact Assay)
as §5
as §1, with “flies” for “mosquitoes”, “Musca domestica strain WHO-N” for “Culex quinquefasciatus (Brown house mosquito)”
as §2

Spodoptera frugiperda = Spodoptera frugiperda - spray test; conditions: in Zea mays, 168 h, read-out: mortality in %
Method: Spodoptera frugiperda—Spray Test
as §3
Maize (Zea mays) leaf sections are sprayed with a preparation of the active ingredient of the desired concentration. Once dry, the leaf sections are infested with fall armyworm larvae (Spodoptera frugiperda).
After 7 days mortality in % is determined. 100% means all caterpillars have been killed and 0% means none of the caterpillars have been killed.

Meloidogyne incognita = Meloidogyne incognita - test; conditions: 336 h, salad seedlings in sand, after 14 days, read-out: nematicidal activity (percentage of gall formation)
Method: Meloidogyne incognita—Test
Solvent: 125.0 parts by weight of acetone
as §6
Vessels are filled with sand, a solution of the active ingredient, a suspension containing eggs and larvae of the southern root-knot nematode (Meloidogyne incognita) and salad seeds. The salad seeds germinate and the seedlings grow. Galls develop in the roots.
After 14 days the nematicidal activity is determined on the basis of the percentage of gall formation. 100% means no galls were found and 0% means the number of galls found on the roots of the treated plants was equal to that in untreated control plants.

Nilaparvata lugens = Nilaparvata lugens - spray test 1; conditions: in Oryza sativa, 96 h, read-out: mortality in %, 500 g/ha, rice plants, after 4 days
Method: Nilaparvata lugens—Spray Test 1
as §3
Rice plants (Oryza sativa) are sprayed with a preparation of the active ingredient of the desired concentration and the plants are infested with the brown planthopper (Nilaparvata lugens).
After 4 days mortality in % is determined. 100% means all planthoppers have been killed and 0% means none of the planthoppers have been killed.

Row | SMILES | mortality at 4 mg/m2 (Culex quinquefasciatus) [%] | mortality at 20 mg/m2 (Culex quinquefasciatus) [%] | mortality at 4 mg/m2 [1] [%] | mortality at 20 mg/m2 [1] [%] | mortality at 500 g/ha (Phaedon cochleariae) [%] | mortality at 20 ppm (Myzus persicae) [%] | mortality at 20 mg/m2 [2] [%] | mortality at 500 g/ha (Nezara viridula) [%] | pest or weed control at 160 µg/disc, 160 µg/well (Diabrotica balteata) [%] | mortality at 100 ppm (Aphis gossypii) [%] | mortality at 4 mg/m2 [3] [%] | mortality at 20 mg/m2 [3] [%] | mortality at 500 g/ha (Spodoptera frugiperda) [%] | pest or weed control at 20 ppm (Meloidogyne incognita) [%] | mortality at 4 mg/m2 [2] [%] | mortality at 500 g/ha (Nilaparvata lugens) [%]
1 | C[C@H](NC(=O)c1cc(Cl)cc(C(F)(F)F)c1)c1ncnn1-c1ccc(Cl)cn1 [Compound I-120, 3-chloro-N-[(1S)-1-[2-(5-chloro-2-pyridyl)-1,2,4-triazol-3-yl]ethyl]-5-(trifluoromethyl)benzamide] | 80 to 100 | 80 to 100 | 80 to 100 | 80 to 100 | 100 | 100 | 80 to 100 | 100 | 100 | 100 | 80 to 100 | 80 to 100 | 100 | – | – | –
2 | CC(c1ncnn1-c1ncccn1)N(CC1CC1)C(=O)c1cc(Cl)c(Cl)c(Cl)c1 (stereo not shown) [Compound I-111] | – | – | – | – | – | – | – | – | – | – | – | – | – | 90 | – | –
3 | CC(NC(=O)c1cc(C(F)(F)F)cc(C(F)(F)F)c1)c1ncnn1-c1ncccn1 (stereo not shown) [Compound I-63, N-[1-(2-pyrimidin-2-yl-1,2,4-triazol-3-yl)ethyl]-3,5-bis(trifluoromethyl)benzamide] | 80 to 100 | 80 to 100 | 80 to 100 | 80 to 100 | 100 | 100 | 80 to 100 | 100 | 100 | 100 | 80 to 100 | 80 to 100 | 100 | – | 80 to 100 | 100
4 | CC(NC(=O)c1cc(Cl)cc(OC(F)(F)F)c1)c1ncnn1-c1ncccn1 (stereo not shown) [Compound I-119, 3-chloro-N-[1-(2-pyrimidin-2-yl-1,2,4-triazol-3-yl)ethyl]-5-(trifluoromethoxy)benzamide] | 80 to 100 | 80 to 100 | 80 to 100 | 80 to 100 | 100 | 100 | 80 to 100 | 100 | 100 | 100 | 80 to 100 | 80 to 100 | 100 | – | 80 to 100 | 100
5 | CC(c1ncnn1-c1ncccn1)N(CC1CC1)C(=O)c1ccc(Cl)cc1 (stereo not shown) [Compound I-109] | – | – | – | – | – | – | – | – | 100 | – | – | – | – | 100 | – | –
6 | CC(NC(=O)c1cc(Cl)cc(C#N)c1)c1ncnn1-c1ncccn1 (stereo not shown) [Compound I-114, 3-chloro-5-cyano-N-[1-(2-pyrimidin-2-yl-1,2,4-triazol-3-yl)ethyl]benzamide] | 80 to 100 | 80 to 100 | 80 to 100 | 80 to 100 | 100 | 100 | 80 to 100 | 100 | 100 | 100 | 80 to 100 | 80 to 100 | 100 | – | 80 to 100 | 100
7 | CC(c1ncnn1-c1ncccn1)N(CC(F)F)C(=O)c1cc(Cl)cc(C(F)(F)F)c1 (stereo not shown) [Compound I-89, 3-chloro-N-(2,2-difluoroethyl)-N-[1-(2-pyrimidin-2-yl-1,2,4-triazol-3-yl)ethyl]-5-(trifluoromethyl)benzamide] | – | – | – | – | 100 | 100 | – | – | 100 | 100 | – | – | 100 | 100 | – | –
8 | Cc1nc(C(C)N(CC2CC2)C(=O)c2cc(Cl)cc(C(F)(F)F)c2)n(-c2ncc(F)cn2)n1 (stereo not shown) [Compound I-77, 3-chloro-N-(cyclopropylmethyl)-N-[1-[2-(5-fluoropyrimidin-2-yl)-5-methyl-1,2,4-triazol-3-yl]ethyl]-5-(trifluoromethyl)benzamide] | 80 to 100 | 80 to 100 | – | 80 to 100 | 100 | 100 | 80 to 100 | 100 | 100 | 100 | 80 to 100 | 80 to 100 | 100 | – | – | 100
9 | CC(c1ncnn1-c1ncccn1)N(C)C(=O)c1cc(Cl)cc(C(F)(F)F)c1 (stereo not shown) [Compound I-100, 3-chloro-N-methyl-N-[1-(2-pyrimidin-2-yl-1,2,4-triazol-3-yl)ethyl]-5-(trifluoromethyl)benzamide] | – | – | – | – | 100 | 100 | – | 100 | 100 | 100 | – | – | 100 | – | – | 100
10 | CC(c1ncnn1-c1ncccn1)N(Cc1ccc(F)cc1)C(=O)c1cc(Cl)cc(C(F)(F)F)c1 (stereo not shown) [Compound I-98] | – | – | – | – | 100 | 100 | – | 100 | 100 | 100 | – | – | 83 | – | – | 100
